Results: ChEMBL document CHEMBL4229546, “Structure-based design and synthesis of 1H-pyrazolo[3,4-d]pyrimidin-4-amino derivatives as Janus kinase 3 inhibitors” (Bioorg Med Chem, 2018)

target: Tyrosine-protein kinase JAK1 (Homo sapiens, UniProt P23458)
Sequence (P23458 whole entry): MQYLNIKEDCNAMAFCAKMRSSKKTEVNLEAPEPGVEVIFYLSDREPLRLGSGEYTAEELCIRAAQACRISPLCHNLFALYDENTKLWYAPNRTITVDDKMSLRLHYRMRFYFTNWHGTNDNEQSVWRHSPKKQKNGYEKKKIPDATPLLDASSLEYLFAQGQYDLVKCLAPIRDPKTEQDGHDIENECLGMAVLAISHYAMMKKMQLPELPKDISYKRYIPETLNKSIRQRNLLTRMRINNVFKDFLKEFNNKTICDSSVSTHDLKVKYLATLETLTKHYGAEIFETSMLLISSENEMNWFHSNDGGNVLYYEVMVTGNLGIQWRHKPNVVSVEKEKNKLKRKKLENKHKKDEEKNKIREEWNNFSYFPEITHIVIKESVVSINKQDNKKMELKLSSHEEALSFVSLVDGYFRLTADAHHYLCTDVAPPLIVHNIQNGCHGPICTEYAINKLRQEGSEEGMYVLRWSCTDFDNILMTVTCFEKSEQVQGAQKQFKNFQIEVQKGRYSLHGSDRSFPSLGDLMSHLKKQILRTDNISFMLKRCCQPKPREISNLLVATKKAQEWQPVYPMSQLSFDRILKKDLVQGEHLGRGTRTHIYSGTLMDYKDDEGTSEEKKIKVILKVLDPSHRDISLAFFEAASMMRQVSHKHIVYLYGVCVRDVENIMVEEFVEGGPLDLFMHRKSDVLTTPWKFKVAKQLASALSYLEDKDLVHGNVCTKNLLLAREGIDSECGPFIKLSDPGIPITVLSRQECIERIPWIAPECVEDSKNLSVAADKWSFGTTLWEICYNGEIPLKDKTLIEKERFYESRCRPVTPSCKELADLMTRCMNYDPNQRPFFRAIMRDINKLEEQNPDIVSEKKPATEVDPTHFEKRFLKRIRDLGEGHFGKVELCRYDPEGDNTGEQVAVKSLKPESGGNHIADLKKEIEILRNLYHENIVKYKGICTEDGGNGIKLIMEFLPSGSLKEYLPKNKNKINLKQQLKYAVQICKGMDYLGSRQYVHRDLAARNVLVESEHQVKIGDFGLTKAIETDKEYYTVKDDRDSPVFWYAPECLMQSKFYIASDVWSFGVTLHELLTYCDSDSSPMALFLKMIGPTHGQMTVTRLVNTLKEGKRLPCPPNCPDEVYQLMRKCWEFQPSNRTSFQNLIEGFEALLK

| IC50 | Compound |
| --- | --- |
| 1670 nM | C=CC(=O)N1CCCC(Cn2nc(-c3cnn(CCOC)c3)c3c(N)ncnc32)C1 (stereo not given) |
| 618 nM | C=CC(=O)N1CCCC(n2nc(-c3cnn(C)c3)c3c(N)ncnc32)C1 (stereo not given) |
| 165 nM | Cn1cc(-c2nn(C3CCN(C#N)CC3)c3ncnc(N)c23)cn1 |
| 1370 nM | CN(C)CC(=O)N1CCCC(n2nc(-c3cnn(C)c3)c3c(N)ncnc32)C1 (stereo not given) |
| 694 nM | C=CC(=O)N1CCC(n2nc(-c3cnn(C)c3)c3c(N)ncnc32)C1 (stereo not given) |
| 1070 nM | C=CC(=O)N1CCC(n2nc(-c3cnn(CCOC)c3)c3c(N)ncnc32)C1 (stereo not given) |
| 497 nM | COCCn1cc(-c2nn(CC3CCCN(C(=O)CC#N)C3)c3ncnc(N)c23)cn1 (stereo not given) |
| 1950 nM | C=CC(=O)N1CCCC(Cn2nc(-c3cnn(C)c3)c3c(N)ncnc32)C1 (stereo not given) |
| 1350 nM | C=CC(=O)N1CCCC(n2nc(-c3cnn(CCOC)c3)c3c(N)ncnc32)C1 (stereo not given) |
| 112 nM | COCCn1cc(-c2nn(C3CCN(C#N)CC3)c3ncnc(N)c23)cn1 |
| 147 nM | Cn1cc(-c2nn(CC3CCCN(C(=O)CC#N)C3)c3ncnc(N)c23)cn1 (stereo not given) |
| 342 nM | Cn1cc(-c2nn(C3CCCN(C(=O)CC#N)C3)c3ncnc(N)c23)cn1 (stereo not given) |
| 2290 nM | CN(C)CC(=O)N1CCCC(Cn2nc(-c3cnn(C)c3)c3c(N)ncnc32)C1 (stereo not given) |
| 497 nM | COCCn1cc(-c2nn(C3CCCN(C(=O)CC#N)C3)c3ncnc(N)c23)cn1 (stereo not given) |

target: Non-receptor tyrosine-protein kinase TYK2 (Homo sapiens, UniProt P29597)
Sequence (P29597 whole entry): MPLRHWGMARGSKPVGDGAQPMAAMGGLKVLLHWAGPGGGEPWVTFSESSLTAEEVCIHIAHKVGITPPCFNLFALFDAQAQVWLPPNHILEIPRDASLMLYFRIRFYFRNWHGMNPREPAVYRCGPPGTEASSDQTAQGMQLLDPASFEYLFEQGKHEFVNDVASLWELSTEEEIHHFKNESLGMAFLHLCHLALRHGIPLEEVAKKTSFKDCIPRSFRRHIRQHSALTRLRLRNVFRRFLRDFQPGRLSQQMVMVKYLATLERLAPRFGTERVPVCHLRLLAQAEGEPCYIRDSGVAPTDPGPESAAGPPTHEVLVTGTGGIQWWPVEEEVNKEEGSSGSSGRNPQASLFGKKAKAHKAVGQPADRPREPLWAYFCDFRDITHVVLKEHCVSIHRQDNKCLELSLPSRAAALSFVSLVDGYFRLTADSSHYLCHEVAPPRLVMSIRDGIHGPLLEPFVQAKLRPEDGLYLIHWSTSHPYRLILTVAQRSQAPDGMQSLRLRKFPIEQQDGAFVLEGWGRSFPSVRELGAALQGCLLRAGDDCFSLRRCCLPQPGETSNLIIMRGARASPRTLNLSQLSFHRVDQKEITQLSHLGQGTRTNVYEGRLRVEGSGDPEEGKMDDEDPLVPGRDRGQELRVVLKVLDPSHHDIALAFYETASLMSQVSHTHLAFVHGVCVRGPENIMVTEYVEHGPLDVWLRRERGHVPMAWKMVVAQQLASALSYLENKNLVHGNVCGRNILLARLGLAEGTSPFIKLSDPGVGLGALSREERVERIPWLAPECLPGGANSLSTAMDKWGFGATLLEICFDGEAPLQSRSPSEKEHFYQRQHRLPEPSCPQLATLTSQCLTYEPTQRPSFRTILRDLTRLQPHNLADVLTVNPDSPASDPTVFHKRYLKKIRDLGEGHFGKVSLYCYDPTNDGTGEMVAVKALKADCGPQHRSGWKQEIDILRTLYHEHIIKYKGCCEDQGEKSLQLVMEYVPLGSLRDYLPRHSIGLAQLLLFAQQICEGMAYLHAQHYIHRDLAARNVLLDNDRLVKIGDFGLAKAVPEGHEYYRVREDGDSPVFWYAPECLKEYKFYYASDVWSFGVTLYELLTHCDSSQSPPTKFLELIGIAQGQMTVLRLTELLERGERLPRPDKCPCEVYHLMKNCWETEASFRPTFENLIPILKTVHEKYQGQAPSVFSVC

| IC50 | Compound |
| --- | --- |
| 3300 nM | C=CC(=O)N1CCCC(Cn2nc(-c3cnn(CCOC)c3)c3c(N)ncnc32)C1 (stereo not given) |
| 1180 nM | C=CC(=O)N1CCCC(n2nc(-c3cnn(C)c3)c3c(N)ncnc32)C1 (stereo not given) |
| 1420 nM | C=CC(=O)N1CCC(n2nc(-c3cnn(C)c3)c3c(N)ncnc32)C1 (stereo not given) |
| 1720 nM | C=CC(=O)N1CCC(n2nc(-c3cnn(CCOC)c3)c3c(N)ncnc32)C1 (stereo not given) |
| > 3000 nM | COCCn1cc(-c2nn(CC3CCCN(C(=O)CC#N)C3)c3ncnc(N)c23)cn1 (stereo not given) |
| 3960 nM | C=CC(=O)N1CCCC(Cn2nc(-c3cnn(C)c3)c3c(N)ncnc32)C1 (stereo not given) |
| 2120 nM | C=CC(=O)N1CCCC(n2nc(-c3cnn(CCOC)c3)c3c(N)ncnc32)C1 (stereo not given) |
| 2350 nM | Cn1cc(-c2nn(CC3CCCN(C(=O)CC#N)C3)c3ncnc(N)c23)cn1 (stereo not given) |
| 2430 nM | Cn1cc(-c2nn(C3CCCN(C(=O)CC#N)C3)c3ncnc(N)c23)cn1 (stereo not given) |
| 3220 nM | COCCn1cc(-c2nn(C3CCCN(C(=O)CC#N)C3)c3ncnc(N)c23)cn1 (stereo not given) |

target: Tyrosine-protein kinase BTK (Homo sapiens, UniProt Q06187)
Sequence (Q06187 whole entry): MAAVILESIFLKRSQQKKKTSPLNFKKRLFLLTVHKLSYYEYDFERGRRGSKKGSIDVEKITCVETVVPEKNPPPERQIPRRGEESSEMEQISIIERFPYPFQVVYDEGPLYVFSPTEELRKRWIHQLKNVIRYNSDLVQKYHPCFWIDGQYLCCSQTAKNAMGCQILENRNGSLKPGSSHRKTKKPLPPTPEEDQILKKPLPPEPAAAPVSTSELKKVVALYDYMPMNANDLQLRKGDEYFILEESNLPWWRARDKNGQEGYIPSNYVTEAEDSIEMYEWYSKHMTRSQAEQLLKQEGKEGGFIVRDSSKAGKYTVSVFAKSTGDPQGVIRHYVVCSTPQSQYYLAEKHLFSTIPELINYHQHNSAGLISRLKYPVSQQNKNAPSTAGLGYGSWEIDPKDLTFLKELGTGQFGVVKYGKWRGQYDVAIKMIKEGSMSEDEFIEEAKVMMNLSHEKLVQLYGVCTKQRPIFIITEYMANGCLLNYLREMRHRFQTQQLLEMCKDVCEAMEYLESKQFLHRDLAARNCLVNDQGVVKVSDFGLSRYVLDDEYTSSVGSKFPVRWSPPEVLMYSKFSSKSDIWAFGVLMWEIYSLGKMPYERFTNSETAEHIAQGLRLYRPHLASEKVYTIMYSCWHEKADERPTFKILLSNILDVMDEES

| IC50 | Compound |
| --- | --- |
| 420 nM | C=CC(=O)N1CCCC(Cn2nc(-c3cnn(CCOC)c3)c3c(N)ncnc32)C1 (stereo not given) |
| 180 nM | C=CC(=O)N1CCCC(n2nc(-c3cnn(C)c3)c3c(N)ncnc32)C1 (stereo not given) |
| 203 nM | C=CC(=O)N1CCC(n2nc(-c3cnn(C)c3)c3c(N)ncnc32)C1 (stereo not given) |
| 126 nM | C=CC(=O)N1CCC(n2nc(-c3cnn(CCOC)c3)c3c(N)ncnc32)C1 (stereo not given) |
| 481 nM | C=CC(=O)N1CCCC(Cn2nc(-c3cnn(C)c3)c3c(N)ncnc32)C1 (stereo not given) |
| 159 nM | C=CC(=O)N1CCCC(n2nc(-c3cnn(CCOC)c3)c3c(N)ncnc32)C1 (stereo not given) |
